Laboratory results published in US12428415B2, “Matriptase 2 inhibitors and uses thereof” (Disc Medicine, Inc., priority 2018, dated 2025).
Like-named read-outs stand apart in the source and are kept apart here.

Target: T1, Human Recombinant Matriptase 2 (Homo sapiens, UniProt Q8IU80)
T1 construct: purchased Enzo Life Sciences (an in-house preparation was also used) ALX-201-752-1
T1 sequence (Q8IU80 1-811): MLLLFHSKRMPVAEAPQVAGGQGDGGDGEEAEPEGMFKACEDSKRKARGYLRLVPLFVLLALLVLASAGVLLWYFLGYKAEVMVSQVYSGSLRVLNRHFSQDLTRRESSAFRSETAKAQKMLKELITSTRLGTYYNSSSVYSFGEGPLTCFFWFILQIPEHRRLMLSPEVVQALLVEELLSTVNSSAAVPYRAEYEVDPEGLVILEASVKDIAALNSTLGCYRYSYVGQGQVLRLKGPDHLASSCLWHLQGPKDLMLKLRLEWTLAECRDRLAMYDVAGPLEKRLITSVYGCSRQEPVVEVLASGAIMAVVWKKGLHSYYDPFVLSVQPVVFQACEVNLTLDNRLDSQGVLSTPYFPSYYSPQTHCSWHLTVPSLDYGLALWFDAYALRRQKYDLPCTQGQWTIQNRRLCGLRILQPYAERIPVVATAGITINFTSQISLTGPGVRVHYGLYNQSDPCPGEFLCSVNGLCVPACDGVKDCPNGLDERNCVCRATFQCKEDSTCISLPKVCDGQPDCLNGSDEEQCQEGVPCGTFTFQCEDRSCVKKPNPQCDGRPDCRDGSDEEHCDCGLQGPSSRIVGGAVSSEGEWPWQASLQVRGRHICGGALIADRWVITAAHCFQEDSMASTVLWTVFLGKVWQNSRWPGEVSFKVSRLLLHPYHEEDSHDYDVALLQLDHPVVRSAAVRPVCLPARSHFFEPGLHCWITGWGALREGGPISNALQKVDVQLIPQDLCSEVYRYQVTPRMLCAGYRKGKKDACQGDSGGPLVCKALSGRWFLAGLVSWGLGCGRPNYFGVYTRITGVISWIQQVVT
Assay: Matriptase 2 fluorescence based inhibition assay, Method B (50 mM TRIS pH 7.5, 150 mM NaCl, 0.01% gelatin)
Format: biochemical
Details: for inhibition at 1 µM: read-out: Mar-2 % inhibition at 1 uM
Description: Test compounds were evaluated for their potential to inhibit Human Recombinant Matriptase 2 (in-house and commercial protein from Enzo Life Sciences—cat log -ALX-201-752-1) using fluorescence based assay. The concentration of Recombinant Matriptase 2 and the substrate used in the assay was: 7 nM (commercial) and 15 nM (Inhouse Matriptase 2) and 100 μM (Boc-Gln-Ala-Arg-7-amido-4-methyl coumarin hydrobromide—Cat log: B4153-Sigma and I-1550 from Bachem) respectively. The assay buffer used was 50 mM TRIS pH 7.5, 150 mM NaCl, 0.01% gelatin (G1393 Sigma). The assay was performed using 384 well black flat bottom plate from grenier (Cat log: 781076) at 25° C. The enzyme and compound preincubated for 30 mins, plate was read 60 mins after substrate addition at wavelength Ex: 360/Em:480 nm. The final assay volume of was 20 μl. Stock solution of compounds were initially prepared in DMSO and appropriate dilutions were made for screening and IC50 determination (final DMSO conc in the assay was 1%). All the measurements were carried out using the Spectramax M5, Molecular devices. The compounds were screened at 1 and 10 μM concentration and IC50 was determined for the interested compounds.
To determine IC50 values, dose response curves were generated by plotting percentage inhibition as a function of inhibitor concentration and the data was fitted to sigmoidal non-linear regression equation (variable slope) using Graph Pad prism software V7.

[1] = 1 uM compound, Assay Used = B (Method B)

SMILES	inhibition at 1 µM (1 uM compound, Assay Used = B)	other results
N=C(N)c1ccc2cc(C(=O)N[C@H]3CC[C@H](N)CC3)n(C[C@H]3CCCc4ccccc43)c2c1 (racemic) [Compound I-612]		inhibition at 1 µM [1]: 25 to 50%
N=C(N)c1ccc2cc(C(=O)O)n(C[C@H]3CCCc4ccccc43)c2c1 (racemic) [Compound I-613]		inhibition at 1 µM [1]: 25 to 50%
N=C(N)c1ccc2cc(C(=O)N[C@H]3CC[C@H](N)CC3)n(C[C@H]3CCc4ccccc43)c2c1 (racemic) [Compound I-616]		inhibition at 1 µM [1]: 25 to 50%
N=C(N)c1ccc2cc(C(=O)N[C@H]3CC[C@H](N)CC3)n(S(=O)(=O)c3ccc4ccccc4c3)c2c1 [Compound I-37]		inhibition at 1 µM (1 uM, Assay Used B): 0 to 25%
N=C(N)c1ccc2cc(C(=O)N[C@H]3CC[C@H](N)CC3)n(Cc3ccc4ccccc4c3)c2c1 [Compound I-233]		inhibition at 1 µM (at 1 uM, Assay Used = B): 25 to 50%
N=C(N)c1ccc(CNC(=O)c2cc3ccc(C(=N)N)cc3n2Cc2cccc3ccccc23)cc1 [Compound I-395]		inhibition at 1 µM (at 1 uM, Assay Used = B): 75 to 100%
N=C(N)c1ccc2cc(C(=O)N[C@H]3CC[C@H](N)CC3)n(S(=O)(=O)c3cccc4ccccc34)c2c1 [Compound I-396, N-((1r,4r)-4-aminocyclohexyl)-6-carbamimidoyl-1-(naphthalen-1-ylsulfonyl)-1H-indole-2-carboxamide]		inhibition at 1 µM (at 1 uM, Assay Used = B): 25 to 50%
CC(C)(C)OC(=O)N[C@H]1CC[C@H](NC(=O)c2cc3ccc(C(=N)N)cc3n2Cc2ccc3ccccc3c2)CC1 [Compound I-402, tert-butyl ((1r,4r)-4-(6-carbamimidoyl-1-(naphthalen-2-ylmethyl)-1H-indole-2-carboxamido)cyclohexyl) carbamate]		Mar-2 % inhibition at 1 uM (1 uM compound, Assay Used = B): A (A represents 0%≤I≤25%)
CC(C)(C)OC(=O)N[C@H]1CC[C@H](NC(=O)c2cc3ccc(C(=N)N)cc3n2Cc2cccc3ccccc23)CC1 [Compound I-403]		Mar-2 % inhibition at 1 uM (1 uM compound, Assay Used = B): A (A represents 0%≤I≤25%)
CC(C)(C)OC(=O)N[C@H]1CC[C@H](NC(=O)c2cc3ccc(C(=N)N)cc3n2CCc2cccc3ccccc23)CC1 [Compound I-404]	0 to 25%	
CC(C)(C)OC(=O)N[C@H]1CC[C@H](NC(=O)c2cc3ccc(C(=N)N)cc3n2CCc2ccc3ccccc3c2)CC1 [Compound I-405]	25 to 50%	
N=C(N)c1ccc2cc(C(=O)N[C@H]3CC[C@H](N)CC3)n(Cc3cccc4ccccc34)c2c1 [Compound I-407]	75 to 100%	
N=C(N)c1ccc2cc(C(=O)N[C@H]3CC[C@H](N)CC3)n(CCc3cccc4ccccc34)c2c1 [Compound I-409]	25 to 50%	
N=C(N)c1ccc2cc(C(=O)N[C@H]3CC[C@H](N)CC3)n(CCc3ccc4ccccc4c3)c2c1 [Compound I-410]	25 to 50%	
CCNC(=N)c1ccc2cc(C(=O)N[C@H]3CC[C@H](NC(=O)OC(C)(C)C)CC3)n(Cc3ccc4ccccc4c3)c2c1 [Compound I-411, Tert-butyl ((1r,4r)-4-(6-(N-ethylcarbamimidoyl)-1-(naphthalen-2-ylmethyl)-1H-indole-2-carboxamido)cyclohexyl)carbamate]	0 to 25%	
CNC(=N)c1ccc2cc(C(=O)NC3CCC(NC(=O)OC(C)(C)C)CC3)n(Cc3ccc4ccccc4c3)c2c1 (centres unmarked) [Compound I-412]	25 to 50%	
CCNC(=N)c1ccc2cc(C(=O)N[C@H]3CC[C@H](N)CC3)n(Cc3ccc4ccccc4c3)c2c1 [Compound I-413, N-((1r,4r)-4-aminocyclohexyl)-6-(N-ethylcarbamimidoyl)-1-(naphthalen-2-ylmethyl)-1H-indole-2-carboxamide]	25 to 50%	
CNC(=N)c1ccc2cc(C(=O)N[C@H]3CC[C@H](N)CC3)n(Cc3ccc4ccccc4c3)c2c1 [Compound I-414]	0 to 25%	
N=C(N)c1ccc2cc(C(=O)N[C@H]3CC[C@H](N)CC3)n(-c3cccc4ccccc34)c2c1 [Compound I-415, N-((1r,4r)-4-aminocyclohexyl)-6-carbamimidoyl-1-(naphthalen-1-yl)-1H-indole-2-carboxamide]	25 to 50%	
CC(C)(C)OC(=O)N[C@H]1CC[C@H](NC(=O)c2cc3ccc(C(=N)N)cc3n2-c2ccc3ccccc3c2)CC1 [Compound I-416]	0 to 25%	
NC(=O)c1ccc2cc(C(=O)N[C@H]3CC[C@H](N)CC3)n(-c3cccc4ccccc34)c2c1 [Compound I-417, N2-((1r,4r)-4-aminocyclohexyl)-1-(naphthalen-1-yl)-1H-indole-2,6-dicarboxamide]	0 to 25%	

Now from value to molecule, other results behind:

inhibition at 1 µM (1 uM compound, Assay Used = B)	SMILES	other results
50 to 75%	N=C(N)c1ccc2cc(C(=O)NC3CCNC(=O)C3)n(Cc3cc(Oc4ncccn4)cc4ccccc34)c2c1 (racemic) [Compound I-560]	
0 to 25%	CC(C)(C)OC(=O)NC(=N)c1ccc2cc(C(=O)N3CC[C@H](O)C3)n(Cc3cccc4ccccc34)c2c1 (stereo in doubt) [Compound I-424]	
0 to 25%	CC(C)(C)OC(=O)NC(=N)c1ccc2cc(C(=O)N3CC[C@H](NC(=O)OC(C)(C)C)C3)n(Cc3cccc4ccccc34)c2c1 (stereo in doubt) [Compound I-428]	
25 to 50%	N=C(N)c1ccc2cc(C(=O)NC34CC5C[C@H](C3)C[C@](O)(C5)C4)n(Cc3cccc4ccccc34)c2c1 (stereo in doubt) [Compound I-449]	
75 to 100%	N=C(N)c1ccc2cc(C(=O)NC3CCNCC3)n(Cc3cccc4ccccc34)c2c1 [Compound I-418, 6-carbamimidoyl-1-(naphthalen-1-ylmethyl)-N-(piperidin-4-yl)-1H-indole-2-carboxamide]	
0 to 25%	CC(C)(C)OC(=O)NC(=N)c1ccc2cc(C(=O)Nc3ccc(NC(=O)c4ccccn4)cc3)n(Cc3cccc4ccccc34)c2c1 [Compound I-419]	
0 to 25%	CCOC(=O)N1CCC(NC(=O)c2cc3ccc(C(=N)NC(=O)OC(C)(C)C)cc3n2Cc2cccc3ccccc23)CC1 [Compound I-420]	
0 to 25%	CC(C)(C)OC(=O)NC(=N)c1ccc2cc(C(=O)NCc3ccc(CO)cc3)n(Cc3cccc4ccccc34)c2c1 [Compound I-421]	
25 to 50%	CC(C)(C)OC(=O)NC(=N)c1ccc2cc(C(=O)N[C@H]3CC[C@H](O)CC3)n(Cc3cccc4ccccc34)c2c1 [Compound I-422]	
0 to 25%	CC(C)(C)OC(=O)NC(=N)c1ccc2cc(C(=O)N3CCCN(C(=O)OC(C)(C)C)CC3)n(Cc3cccc4ccccc34)c2c1 [Compound I-423]	
0 to 25%	CN1CCN(C(=O)c2cc3ccc(C(=N)NC(=O)OC(C)(C)C)cc3n2Cc2cccc3ccccc23)CC1 [Compound I-425]	
0 to 25%	CC(C)(C)OC(=O)NC(=N)c1ccc2cc(C(=O)N3CCC(CO)CC3)n(Cc3cccc4ccccc34)c2c1 [Compound I-426]	
0 to 25%	CC(C)(C)OC(=O)NC(=N)c1ccc2cc(C(=O)NC3CCCN(C(=O)OC(C)(C)C)C3)n(Cc3cccc4ccccc34)c2c1 (centres unmarked) [Compound I-427]	
50 to 75%	N=C(N)c1ccc2cc(C(=O)N3CCC(CN)CC3)n(Cc3cccc4ccccc34)c2c1 [Compound I-429]	
50 to 75%	N=C(N)c1ccc2cc(C(=O)Nc3ccc(NC(=O)c4ccccn4)cc3)n(Cc3cccc4ccccc34)c2c1 [Compound I-430]	
50 to 75%	N=C(N)c1ccc2cc(C(=O)N3CCN(C(=O)CN)CC3)n(Cc3cccc4ccccc34)c2c1 [Compound I-431]	
75 to 100%	CN1CCC(NC(=O)c2cc3ccc(C(=N)N)cc3n2Cc2cccc3ccccc23)CC1 [Compound I-432]	
75 to 100%	N=C(N)c1ccc2cc(C(=O)N[C@@H]3CCNC3)n(Cc3cccc4ccccc34)c2c1 [Compound I-433]	
75 to 100%	CCOC(=O)N1CCC(NC(=O)c2cc3ccc(C(=N)N)cc3n2Cc2cccc3ccccc23)CC1 [Compound I-434]	
50 to 75%	N=C(N)c1ccc2cc(C(=O)NCc3ccc(CO)cc3)n(Cc3cccc4ccccc34)c2c1 [Compound I-435]	
